Read-outs that look alike come from different tables or passages of the source.
What was measured:
[1] = test system: keratinocytes; settings: in vitro; cited from earlier work
[2] = test system: photoaged skin; settings: cited from earlier work
[3] = test system: Human neonatal foreskin keratinocytes; test: Growth of human neonatal foreskin keratinocytes (cell number); type: cell-based; settings: three days
Text: (§1) Human neonatal foreskin keratinocytes and human neonatal foreskin fibroblasts were isolated and grown in monlayer culture. Culture medium for keratinocytes was Keratincyte Growth Medium (KGM) from Clonetics, Inc., San Diego. Calif. The culture medium for fibroblasts was Dulbecco's Modified Eagle's Medium (DMEM) supplemented with non-essential amino acids and 10% fetal bovine serum. The culture medium was obtained from GIBCO, Grand Island, N.Y. and the FBS was from Hyclone Labs, Inc., Logan, Utah.
Cells at passage 2-4 were plated in wells of a 24 well dish at approximately 5×10^4 cells per well in their respective culture medium. Incubation was at 37° C. with 5% CO2. After the cells attached and spread overnight, they were washed two times in serum-free keratincyte basal medium (KBM) and incubated in 1 ml of KBM or in 1 ml of KGM. Compound IV was added in varying concentrations to the wells. […] The cells were incubated for an additional two days for fibroblasts and three days for keratinocytes, and were then harvested and counted.

[4] = test system: partial-thickness skin wounds; settings: cited from earlier work
[5] = test system: corneal epithelial wounds; settings: cited from earlier work
[6] = test system: skin wound of rats; settings: 1% for 3 days before and 0.1% after the wound; cited from earlier work
[7] = test system: rabbit skin; test: Draize test for irritation (rabbit dermal irritation); type: in vivo
[8] = test system: epidermal growth factor cell surface receptors; settings: in vitro; cited from earlier work
[9] = test system: Human neonatal foreskin fibroblasts; test: Growth of human neonatal foreskin fibroblasts (cell number); type: cell-based; settings: two days
Text: as §1
Cells at passage 2-4 were plated in wells of a 24 well dish at approximately 5×10^4 cells per well in their respective culture medium. Incubation was at 37° C. with 5% CO2. After the cells attached and spread overnight, they were washed two times in serum-free keratincyte basal medium (KBM) and incubated in 1 ml of KBM or in 1 ml of KGM. Compound IV was added in varying concentrations to the wells. All-trans-retinoic acid (or no treatment) was added to control wells. The cells were incubated for an additional two days for fibroblasts and three days for keratinocytes, and were then harvested and counted. The effect of IV and of the controls are shown for both cell types in Tables 9 and 10: […]

[10] = test system: ornithine decarboxylase (ODC); test: ODC/Retinoid Bioassay: inhibition of TPA induced ornithine decarboxylase activity; type: in vivo, CD-1 mice; settings: topical, TPA induced
Protocol: The ODC/Retinoid Bioassay is based on the method of Verma, A. K. and Boutwell, R. K., Cancer Res. (1977) 37:2196-2201. The ODC assay measures a compounds effect on the prevention of the induction of ODC, namely the effect of the retinoid compound on the inhibition of the tumor promoter 12-O-tetradecanoylphorbol-13-acetate (TPA) induced ODC activity. The assay is carried out using CD-1 mice (aged 7 to 9 weeks). The dorsal hair of the mice is shaved 3-4 days before testing. Four mice are used for each point. The test retinoids, at one of two dose levels (1.7 and 17 nmoles) dissolved in 0.2 ml of acetone is applied topically to the back of each shaved mouse. A single dose of TPA ([…]) is applied to the back of each treated mouse 30 minutes later. Control groups are treated with either acetone alone, TPA, or tretinoin. The mice are sacrificed by cervical dislocation 5 hours after TPA treatment.
The dorsal skin encompassing the shaved and TPA exposed area is excised and placed in a 100 ml beaker containing distilled water maintained at 51° C.-57° C. The skin is soaked for 50-70 seconds at this temperature with intermittent stirring. The skin is placed epidermis side up in a chilled (0°-5° C.) stainless steel plate and the epidermal layer is scraped off with a razor blade. The epidermal layers from the 4 mice are pooled and placed in a homogenization tube with 2 ml of ODA buffer ([…] with […] pyridoxal phosphate, […] ethylenediaminetetraacetic acid (EDTA), 1 mM dithiothreitol, pH 7.5). The pooled epidermal layers are homogenized for 15 seconds at 0° C. using a Polytron homogenizer at a setting of 7.5. The homogenate is centrifuged at 30,000×g and the supernatant fraction is pipetted into a storage tube and frozen for about 72 hours.
The homogenate is assayed for ODC activity as described by Verma and Boutwell to measure the release of ^14 CO2 from labeled DL(1-14C) ornithine. Incubations are carried out in disposable centrifuge tubes with center well holders containing filter paper impregnated with sodium hydroxide to absorb ^14 CO2. The incubation mixture consisted of 90 μl of L-ornithine, 350 μl of ODC buffer, 100 μl of 14C-ornithine (1.32 nm, Sp. Act:4.4 pCi/pM) and 10 μl of test sample. After incubation at 37° C. for 45 minutes, 0.5 ml of 2M chilled citric acid (4° C.) is added and incubation is continue for an additional 30 minutes to insure complete absorption of ^14 CO2. The filter paper is removed from the center well holders and set in 1 ml of water in capped scintillation vials for at least 1 hour before adding RBI 3820 scintillation cocktail. Radioactivity is measured in a Tri Carb Scintillation Counter. Results are expressed as pmol of ^14 CO2 released in 30 minutes per milligram of protein based on the specific activity of DL-14C-ornithine. The results are expressed in Table 2 below as the % reduction in ODC activity as compared to the control, for the compounds of each of the preceding Examples: […]

[11] = test system: skin of rabbits; test: Topical assay for primary acute dermal irritation; type: in vivo
Protocol: Twelve healthy, young, adult, female New Zealand White rabbits (Orycetolagus cuniculus), are used in the study. […] At the start of the study, the animals are in the weight range between 2.0 and 3.0 kilograms, and are approximately 11 weeks of age. Animals selected for the test are not subjected to any previous experimental procedures, and their skin is free from irritation, trauma and disease.
Six animals are treated in this manner.
The application sites are prepared by clipping the skin of the trunk free of hair approximately 24 hours before application of the dose. One application site on each animal is abraded by making minor incisions through the stratum corneum, but not sufficient to disturb the derma (that is, not sufficiently deep to produce bleeding). The second application site is intact skin.
The dose is applied to a small area (approximately 6 cm^2) of skin and covered with a gauze patch which is held in place with Vetrap bandaging. The patches are applied to one intact site and one abraded site per animal. The test substance is kept in contact with the skin for 24 hours. The skin is not rinsed following the 24 hour exposure period.
Animals are observed for signs of erythma and edema 24 and 72 hours after application of the test material. Observations are scored according to the Draize Scale for Scoring Skin Reactions as in Draize, J. H., Dermal Toxicity, Appraisal of the Safety of Chemicals in Foods, Drugs and Cosmetics Dermal Toxicity, pp. 46-59, Association of Food and Drug Officials of the U.S., Topeka, Kans., 1965. […] Animals are weighed at the beginning and at the end of the observation period.

[12] = 0.1% retinoic acid hydrophilic cream, 16 weeks
[13] = 17.0 nM (as printed in Table 2)

CC1=C(/C=C/C(C)=C/C=C/C(C)=C/C(=O)O)C(C)(C)CCC1 [all-trans-retinoic acid, reference compound]
Effect on keratinocyte proliferation and growth [1]: capacity to stimulate proliferation of quiescent keratinocytes in vitro | Effect on sun damaged skin (Weiss study) [2, 12]: some positive effects on the surface texture and wrinkling of sun damaged facial skin, and on the histology of the epidermal and stratum corneum layers of dorsal forearm skin | Irritancy (Weiss study) [2, 12]: moderately severe irritancy level | Patients who experienced dermatitis ([2]; Weiss et al.): 92% | Improvement of photoaging of the skin ([2]; cream containing 0.1% tretinoin, daily topical): could be improved within a 16-week period | Redness, peeling, stinging, burning and dryness ([2]; topical tretinoin therapy): consistently experienced by nearly all subjects | Subjects with dermatitis severe enough to require topical steroids ([2]; topical tretinoin therapy): Eleven of fifteen subjects | Subjects withdrawn due to severity of dermatitis ([2]; topical tretinoin therapy): Three of fifteen | Number of keratinocytes, KGM ([3]; 0.25 μg/ml): 24.7 ± 1.7 × 10^4 cells | Number of keratinocytes, KMB ([3]; 0.25 μg/ml): 13.7 ± 1.6 × 10^4 cells | Number of keratinocytes, KGM ([3]; 0.5 μg/ml): 17.7 ± 0.8 × 10^4 cells | Number of keratinocytes, KMB ([3]; 0.5 μg/ml): 15.2 ± 0.1 × 10^4 cells | Number of keratinocytes, KMB ([3]; 1.0 μg/ml): 12.3 ± 1.0 × 10^4 cells | Effect on healing when applied after wounding ([4]; applied after wounding): deleterious effect on healing | Rate of healing ([4]; pre-treated with 0.05% tretinoin cream for 10 days prior to wounding): 6% | Increase in the healing rate ([5]; 0.1% tretinoin three times per day): 21% | Increase in the healing rate ([5]; five times a day): 35% | Acceleration of healing compared to control group [6]: 18% | Erythema Grade ([7]; dose 0.001%): 0.4 | Erythema Grade ([7]; dose 0.01%): 0.8 | Erythema Grade ([7]; dose 0.1%): 2.8 | ID50, dermal irritation ([7]; rabbit): 0.01% | Effect on epidermal growth factor activity and receptor binding [8]: increases the mitogenic activity of epidermal growth factor and its binding to its cell surface receptors in vitro | Number of fibroblasts ([9]; 0.25 μg/ml): 10.1 ± 0.2 × 10^4 cells | Number of fibroblasts ([9]; 0.5 μg/ml): 10.1 ± 0.1 × 10^4 cells | Number of fibroblasts ([9]; 1.0 μg/ml): 9.6 ± 0.1 × 10^4 cells | ODC activity reduction [10, 13]: +++

COc1ccc(C(=O)COC(=O)/C=C(C)/C=C/C=C(C)\C=C\C2=C(C)CCCC2(C)C)cc1 [Compound 2, 2-(9-cis-retinoyloxy)-4'-methoxyacetophenone]
Signs of erythema or edema formation (Draize scale) ([11]; 0.5 ml topical, intact and abraded skin, 24 and 72 hours): no signs of erythema or edema formation are evident in any of the 12 test animals | Body weight change ([11]; beginning vs end of observation period, all 12 animals): All 12 animals exhibited a gain in body weight | Overt signs of toxicity ([11]; rabbit, in vivo): No overt signs of toxicity are evident | ODC activity reduction ([10]; 1.7 nM (as printed in Table 2)): ++ | ODC activity reduction [10, 13]: +++
